# Literature values in patent publication US20130316000A1, “COMPOSITIONS AND METHODS FOR TREATMENT OF IRRITABLE BOWEL SYNDROME WITH 5-AMINOSALICYLATE” (priority 2012, published 2013).
compound,measurement,value
"Nc1ccc(O)c(C(=O)O)c1 [mesalamine, 5-aminosalicylic acid]",concentration detected in human breast milk,low concentrations
